Assay results published in ChEMBL document CHEMBL1153043, “Synthesis and evaluation of 1-(benzo[b]thiophen-2-yl)ethanone analogues as novel anti-osteoporosis agents acting on BMP-2 promotor” (Bioorg Med Chem Lett, 2009).

Tests used:
[1] = test system: Rattus norvegicus; assay: Antiosteoporotic activity in ovariectomized Sprague-Dawley rat assessed as trabecular bone volume at 5 mg/kg/day, po for 90 days by bone histomorphometry; type: functional, Trabecula
[2] = test system: Rattus norvegicus; assay: Antiosteoporotic activity in ovariectomized Sprague-Dawley rat assessed as mineral apposition rate at 5 mg/kg/day, po for 90 days by bone histomorphometry; type: functional
[3] = test system: Rattus norvegicus; assay: Antiosteoporotic activity in ovariectomized Sprague-Dawley rat assessed as trabecula formation surface at 5 mg/kg/day, po for 90 days by bone histomorphometry; type: functional
[4] = test system: Rattus norvegicus; assay: Antiosteoporotic activity in ovariectomized Sprague-Dawley rat assessed as trabecula resorption surface at 5 mg/kg/day, po for 90 days by bone histomorphometry; type: functional
[5] = test system: Rattus norvegicus; assay: Antiosteoporotic activity in ovariectomized Sprague-Dawley rat assessed as osteo cortex mineralization rate at 5 mg/kg/day, po for 90 days by bone histomorphometry; type: functional
[6] = test system: Rattus norvegicus; assay: Antiosteoporotic activity in ovariectomized Sprague-Dawley rat assessed as average osteoid width at 5 mg/kg/day, po for 90 days by bone histomorphometry; type: functional
[7] = Enhancement of BMP-2 expression in mouse MC3T3-E1 cells assessed as upregulation rate at 4 uM; type: functional, cell-based
[8] = test system: Rattus norvegicus; assay: Antiosteoporotic activity in ovariectomized Sprague-Dawley rat assessed as mineral apposition rate at 20 mg/kg/day, po for 90 days by bone histomorphometry; type: functional
[9] = test system: Rattus norvegicus; assay: Antiosteoporotic activity in ovariectomized Sprague-Dawley rat assessed as average osteoid width at 10 mg/kg/day, po for 90 days by bone histomorphometry; type: functional
[10] = test system: Rattus norvegicus; assay: Antiosteoporotic activity in ovariectomized Sprague-Dawley rat assessed as average osteoid width at 20 mg/kg/day, po for 90 days by bone histomorphometry; type: functional
[11] = test system: Rattus norvegicus; assay: Antiosteoporotic activity in ovariectomized Sprague-Dawley rat assessed as average osteoid width at 40 mg/kg/day, po for 90 days by bone histomorphometry; type: functional
[12] = test system: Rattus norvegicus; assay: Antiosteoporotic activity in ovariectomized Sprague-Dawley rat assessed as trabecula formation surface at 40 mg/kg/day, po for 90 days by bone histomorphometry; type: functional
[13] = test system: Rattus norvegicus; assay: Antiosteoporotic activity in ovariectomized Sprague-Dawley rat assessed as trabecula resorption surface at 40 mg/kg/day, po for 90 days by bone histomorphometry; type: functional
[14] = test system: Rattus norvegicus; assay: Antiosteoporotic activity in ovariectomized Sprague-Dawley rat assessed as trabecula formation surface at 20 mg/kg/day, po for 90 days by bone histomorphometry; type: functional
[15] = test system: Rattus norvegicus; assay: Antiosteoporotic activity in ovariectomized Sprague-Dawley rat assessed as trabecula resorption surface at 10 mg/kg/day, po for 90 days by bone histomorphometry; type: functional
[16] = test system: Rattus norvegicus; assay: Antiosteoporotic activity in ovariectomized Sprague-Dawley rat assessed as osteo cortex mineralization rate at 20 mg/kg/day, po for 90 days by bone histomorphometry; type: functional
[17] = test system: Rattus norvegicus; assay: Antiosteoporotic activity in ovariectomized Sprague-Dawley rat assessed as trabecular bone volume at 40 mg/kg/day, po for 90 days by bone histomorphometry; type: functional, Trabecula
[18] = test system: Rattus norvegicus; assay: Antiosteoporotic activity in ovariectomized Sprague-Dawley rat assessed as trabecular bone volume at 10 mg/kg/day, po for 90 days by bone histomorphometry; type: functional, Trabecula
[19] = test system: Rattus norvegicus; assay: Antiosteoporotic activity in ovariectomized Sprague-Dawley rat assessed as trabecula formation surface at 10 mg/kg/day, po for 90 days by bone histomorphometry; type: functional
[20] = test system: Rattus norvegicus; assay: Antiosteoporotic activity in ovariectomized Sprague-Dawley rat assessed as osteo cortex mineralization rate at 10 mg/kg/day, po for 90 days by bone histomorphometry; type: functional
[21] = test system: Rattus norvegicus; assay: Antiosteoporotic activity in ovariectomized Sprague-Dawley rat assessed as osteo cortex mineralization rate at 40 mg/kg/day, po for 90 days by bone histomorphometry; type: functional
[22] = test system: Rattus norvegicus; assay: Antiosteoporotic activity in ovariectomized Sprague-Dawley rat assessed as mineral apposition rate at 10 mg/kg/day, po for 90 days by bone histomorphometry; type: functional
[23] = test system: Rattus norvegicus; assay: Antiosteoporotic activity in ovariectomized Sprague-Dawley rat assessed as mineral apposition rate at 40 mg/kg/day, po for 90 days by bone histomorphometry; type: functional
[24] = test system: Rattus norvegicus; assay: Antiosteoporotic activity in ovariectomized Sprague-Dawley rat assessed as trabecular bone volume at 20 mg/kg/day, po for 90 days by bone histomorphometry; type: functional, Trabecula
[25] = test system: Rattus norvegicus; assay: Antiosteoporotic activity in ovariectomized Sprague-Dawley rat assessed as trabecula resorption surface at 20 mg/kg/day, po for 90 days by bone histomorphometry; type: functional
[26] = Enhancement of BMP-2 expression in mouse MC3T3-E1 cells assessed as upregulation rate at 0.4 uM; type: functional, cell-based

Question: For `O=C(c1ccc(OCCN2CCCCC2)cc1)c1c(-c2ccc(O)cc2)sc2cc(O)ccc12` [RALOXIFENE], which Activity [1] is on record?
Answer: 22.31%

Question: What about the Activity [2] of the same compound?
Answer: 2.14 µm/day

Question: What about the Activity [3] of the same compound?
Answer: 6.52%

Question: What about the Activity [4] of the same compound?
Answer: 3.34%

Question: What about the Activity [5] of the same compound?
Answer: 3.15 µm/day

Question: What about the Activity [6] of the same compound?
Answer: 11.1 µm

Question: Which Activity [7] does the source give for `CC(=O)c1cc2c(Cl)cccc2s1` here?
Answer: 27.9%

Question: With `NC(=O)c1cc2ccccc2s1` as the compound, how does the Activity [7] read?
Answer: 11.2%

Question: For `CC(=O)c1cc2ccccc2o1`, which Activity [8] is on record?
Answer: 2.34 µm/day

Question: And the Activity [9]?
Answer: 11.2 µm

Question: What about the Activity [10] of the same compound?
Answer: 11.6 µm

Question: What about the Activity [11] of the same compound?
Answer: 11 µm

Question: What about the Activity [12] of the same compound?
Answer: 6.74%

Question: And the Activity [13]?
Answer: 5.3%

Question: And the Activity [14]?
Answer: 6.75%

Question: What about the Activity [15] of the same compound?
Answer: 7.84%

Question: And the Activity [16]?
Answer: 3.51 µm/day

Question: And the Activity [17]?
Answer: 17.5%

Question: And the Activity [18]?
Answer: 12.39%

Question: And the Activity [19]?
Answer: 7.26%

Question: And the Activity [7]?
Answer: 33.5%

Question: And the Activity [20]?
Answer: 3.28 µm/day

Question: And the Activity [21]?
Answer: 3.3 µm/day

Question: What about the Activity [22] of the same compound?
Answer: 2.31 µm/day

Question: What about the Activity [23] of the same compound?
Answer: 2.2 µm/day

Question: And the Activity [24]?
Answer: 13.13%

Question: And the Activity [25]?
Answer: 7.15%

Question: For `CC[C@H](C)C(=O)O[C@H]1C[C@@H](C)C=C2C=C[C@H](C)[C@H](CC[C@@H]3C[C@@H](O)CC(=O)O3)[C@H]21`, which Activity [26] is on record?
Answer: 20.9%

Question: For `CC(=O)c1sc2ccccc2c1C`, which Activity [7] is on record?
Answer: 28%

Question: For `CC(=O)c1csc2ccccc12`, which Activity [7] is on record?
Answer: 11.9%

Question: With `CC(=O)c1sc2cccc(Cl)c2c1C` as the compound, how does the Activity [7] read?
Answer: 16.5%

Question: For `CC(=O)c1sc2ccc(C(F)(F)F)cc2c1C`, which Activity [7] is on record?
Answer: 16.7%

Question: For `O=C(O)c1cc2ccccc2s1`, which Activity [7] is on record?
Answer: 10.8%
